Laboratory results published in US20240228463A1, “SODIUM CHANNEL INHIBITORS AND METHODS OF DESIGNING SAME” (Genentech, Inc., priority 2021, published 2024).

Target: T1, hNaV1.7 (Homo sapiens, UniProt Q15858)
T1 construct: expressed in transfected cells
Experiment: Patch voltage clamp electrophysiology (EP), Syncropatch 384PE, Nav1.7 in CHO cells;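 note: Nav1.7 stably expressed from cDNA in CHO cells, holding potential of −50 mV kept for the entire experiment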
Assay type: cell-based
Details: holding potential −50 mV, inhibition based on 7.5 min compound incubation, read-out: hNaV1.7 EP_SP

T1 sequence (Q15858 1-1977 isoform Q15858-3): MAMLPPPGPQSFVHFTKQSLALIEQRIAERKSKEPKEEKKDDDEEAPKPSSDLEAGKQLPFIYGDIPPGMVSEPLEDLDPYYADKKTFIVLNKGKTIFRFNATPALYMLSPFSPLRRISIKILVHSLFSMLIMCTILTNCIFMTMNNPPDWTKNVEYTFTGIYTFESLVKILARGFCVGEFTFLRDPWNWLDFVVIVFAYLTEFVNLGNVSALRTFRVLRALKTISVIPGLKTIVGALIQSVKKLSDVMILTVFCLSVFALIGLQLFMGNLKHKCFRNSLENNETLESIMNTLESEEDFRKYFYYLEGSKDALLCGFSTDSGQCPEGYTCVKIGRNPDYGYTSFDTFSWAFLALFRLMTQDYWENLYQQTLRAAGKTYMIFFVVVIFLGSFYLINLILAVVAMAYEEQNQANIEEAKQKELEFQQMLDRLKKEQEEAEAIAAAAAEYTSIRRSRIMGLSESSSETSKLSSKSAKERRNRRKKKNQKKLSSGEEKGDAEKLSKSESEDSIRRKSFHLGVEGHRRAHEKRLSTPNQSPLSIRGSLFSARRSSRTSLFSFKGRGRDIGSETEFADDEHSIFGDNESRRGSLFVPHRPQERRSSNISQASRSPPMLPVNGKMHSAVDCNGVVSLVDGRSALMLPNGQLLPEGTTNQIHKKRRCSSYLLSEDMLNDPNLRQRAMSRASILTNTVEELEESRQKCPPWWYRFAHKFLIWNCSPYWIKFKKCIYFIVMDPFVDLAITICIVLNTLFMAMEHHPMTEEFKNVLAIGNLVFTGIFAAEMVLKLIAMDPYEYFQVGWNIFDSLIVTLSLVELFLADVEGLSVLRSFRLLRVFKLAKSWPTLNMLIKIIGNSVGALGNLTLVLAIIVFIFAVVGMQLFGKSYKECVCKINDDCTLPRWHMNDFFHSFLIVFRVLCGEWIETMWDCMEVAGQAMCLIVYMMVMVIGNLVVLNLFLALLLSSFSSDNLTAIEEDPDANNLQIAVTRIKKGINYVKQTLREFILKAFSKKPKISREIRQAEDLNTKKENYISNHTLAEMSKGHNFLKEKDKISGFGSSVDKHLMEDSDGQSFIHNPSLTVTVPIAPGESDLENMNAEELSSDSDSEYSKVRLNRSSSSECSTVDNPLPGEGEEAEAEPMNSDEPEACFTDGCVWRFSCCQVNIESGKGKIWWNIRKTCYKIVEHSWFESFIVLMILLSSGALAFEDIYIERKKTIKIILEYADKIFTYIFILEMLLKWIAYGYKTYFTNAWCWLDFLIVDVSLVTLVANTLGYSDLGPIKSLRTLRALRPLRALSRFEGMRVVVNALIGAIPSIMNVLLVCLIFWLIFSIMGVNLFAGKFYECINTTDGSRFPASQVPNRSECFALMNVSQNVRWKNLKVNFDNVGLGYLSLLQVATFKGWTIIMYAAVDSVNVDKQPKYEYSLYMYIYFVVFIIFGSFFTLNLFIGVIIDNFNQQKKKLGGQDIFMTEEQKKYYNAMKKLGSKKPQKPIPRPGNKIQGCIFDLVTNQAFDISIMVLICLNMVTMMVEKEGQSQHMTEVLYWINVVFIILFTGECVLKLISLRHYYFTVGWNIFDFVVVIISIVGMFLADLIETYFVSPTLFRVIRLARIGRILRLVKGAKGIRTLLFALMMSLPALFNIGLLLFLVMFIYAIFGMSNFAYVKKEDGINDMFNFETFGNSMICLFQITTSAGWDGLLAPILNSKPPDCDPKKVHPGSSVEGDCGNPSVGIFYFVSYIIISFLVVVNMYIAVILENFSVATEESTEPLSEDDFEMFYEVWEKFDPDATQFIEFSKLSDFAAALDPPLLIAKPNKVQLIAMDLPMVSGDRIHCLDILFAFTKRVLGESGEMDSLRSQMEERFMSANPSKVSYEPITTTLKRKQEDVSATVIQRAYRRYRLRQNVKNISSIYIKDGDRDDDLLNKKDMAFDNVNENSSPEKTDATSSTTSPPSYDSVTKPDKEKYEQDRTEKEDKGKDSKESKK

Structure (SMILES)	IC50 [µM]
Cn1ncnc1COc1ccc(S(=O)(=O)NC(=O)c2cc(Cl)c(OCC3CCCC3)cc2F)cc1 [Example 286, 5-chloro-4-(cyclopentylmethoxy)-2-fluoro-N-((4-((1-methyl-1H-1,2,4-triazol-5-yl)methoxy)phenyl)sulfonyl)benzamide]	0.16
O=C(NS(=O)(=O)c1ccc(OCC(F)(F)F)cc1)c1cc(Cl)c(OCC2CCCC2)cc1F [Example 287, 5-chloro-4-(cyclopentylmethoxy)-2-fluoro-N-((4-(2,2,2-trifluoro-ethoxy)phenyl)sulfonyl)benzamide]	0.25
O=C(NS(=O)(=O)c1ccc(Oc2ccc(Cl)cc2)cc1)c1cc(Cl)c(OCC2CCCC2)cc1F [Example 288, 5-chloro-N-((4-(4-chlorophenoxy)phenyl)sulfonyl)-4-(cyclopentylmethoxy)-2-fluorobenzamide]	0.49
O=C(NS(=O)(=O)c1ccc2c(c1)OCCCO2)c1cc(Cl)c(OCC2CCCC2)cc1F [Example 289, 5-chloro-4-(cyclopentylmethoxy)-N-((3,4-dihydro-2H-benzo[b][1,4]dioxepin-7-yl)sulfonyl)-2-fluorobenzamide]	0.71
O=C(NS(=O)(=O)c1ccc2ccccc2c1)c1cc(Cl)c(OCC2CCCC2)cc1F [Example 290, 5-chloro-4-(cyclopentylmethoxy)-2-fluoro-N-(naphthalen-2-ylsulfonyl)benzamide]	0.76
COc1ccccc1-n1cc(S(=O)(=O)NC(=O)c2cc(Cl)c(OCC3CCCC3)cc2F)cn1 [Example 291, 5-chloro-4-(cyclopentylmethoxy)-2-fluoro-N-((1-(2-methoxyphenyl)-1H-pyrazol-4-yl)sulfonyl)benzamide]	0.35
O=C(NS(=O)(=O)c1ccc(Cn2cncn2)cc1)c1cc(Cl)c(OCC2CCCC2)cc1F [Example 292, N-((4-((1H-1,2,4-triazol-1-yl)methyl)phenyl)sulfonyl)-5-chloro-4-(cyclopentylmethoxy)-2-fluorobenzamide]	0.43
O=C(NS(=O)(=O)c1ccc(OC(F)(F)F)cc1Cl)c1cc(Cl)c(OCC2CCCC2)cc1F [Example 293, 5-chloro-N-((2-chloro-4-(trifluoromethoxy)phenyl)sulfonyl)-4-(cyclopentylmethoxy)-2-fluorobenzamide]	0.85
O=C(NS(=O)(=O)c1ccc(OCc2ccccc2)cc1)c1cc(Cl)c(OCC2CCCC2)cc1F [Example 294, N-((4-(benzyloxy)phenyl)sulfonyl)-5-chloro-4-(cyclopentylmethoxy)-2-fluorobenzamide]	0.13
O=C(NS(=O)(=O)c1ccc(OCc2ncccn2)cc1)c1cc(Cl)c(OCC2CCCC2)cc1F [Example 295, 5-chloro-4-(cyclopentylmethoxy)-2-fluoro-N-((4-(pyrimidin-2-ylmethoxy)phenyl)sulfonyl)benzamide]	0.23
O=C(NS(=O)(=O)c1ccc(OCC2CNC2)cc1)c1cc(Cl)c(OCC2CCCC2)cc1F [Example 296, N-((4-(azetidin-3-ylmethoxy)phenyl)sulfonyl)-5-chloro-4-(cyclopentylmethoxy)-2-fluorobenzamide]	0.28
CC(=O)N1CCc2cccc(COc3ccc(S(=O)(=O)NC(=O)c4cc(Cl)c(OCC5CCCC5)cc4F)cc3)c2C1 [Example 297, N-((4-((2-acetyl-1,2,3,4-tetrahydroisoquinolin-8-yl)methoxy)phenyl)sulfonyl)-5-chloro-4-(cyclopentylmethoxy)-2-fluorobenzamide]	0.022
O=C(NS(=O)(=O)c1ccc(OCc2cccc(F)c2)cc1)c1cc(Cl)c(OCC2CCCC2)cc1F [Example 298, 5-chloro-4-(cyclopentylmethoxy)-2-fluoro-N-((4-((3-fluorobenzyl)oxy)-phenyl)sulfonyl)benzamide]	0.22
Cn1cc(COc2ccc(S(=O)(=O)NC(=O)c3cc(Cl)c(OCC4CCCC4)cc3F)cc2)cn1 [Example 299, 5-chloro-4-(cyclopentylmethoxy)-2-fluoro-N-((4-((1-methyl-1H-pyrazol-4-yl)methoxy)phenyl)sulfonyl)benzamide]	0.038
NCc1cccc(COc2ccc(S(=O)(=O)NC(=O)c3cc(Cl)c(OCC4CCCC4)cc3F)cc2)c1 [Example 300, N-((4-((3-(aminomethyl)benzyl)oxy)phenyl)sulfonyl)-5-chloro-4-(cyclopentylmethoxy)-2-fluorobenzamide]	0.0032
O=C(NS(=O)(=O)c1ccc(OCc2ccccn2)cc1)c1cc(Cl)c(OCC2CCCC2)cc1F [Example 301, 5-chloro-4-(cyclopentylmethoxy)-2-fluoro-N-((4-(pyridin-2-ylmethoxy)phenyl)sulfonyl)benzamide]	0.039
Cc1cc(C)cc(COc2ccc(S(=O)(=O)NC(=O)c3cc(Cl)c(OCC4CCCC4)cc3F)cc2)c1 [Example 303, 5-chloro-4-(cyclopentylmethoxy)-N-((4-((3,5-dimethyl-benzyl)oxy)phenyl)sulfonyl)-2-fluorobenzamide]	0.26
O=C(NS(=O)(=O)c1ccc(OCc2cncnc2)cc1)c1cc(Cl)c(OCC2CCCC2)cc1F [Example 304, 5-chloro-4-(cyclopentylmethoxy)-2-fluoro-N-((4-(pyrimidin-5-ylmethoxy)phenyl)sulfonyl)benzamide]	0.57
O=C(NS(=O)(=O)c1ccc(OCC2CCCN2)cc1)c1cc(Cl)c(OCC2CCCC2)cc1F (stereo not shown) [Example 305, 5-chloro-4-(cyclopentylmethoxy)-2-fluoro-N-((4-(pyrrolidin-2-ylmethoxy)phenyl)sulfonyl)benzamide]	0.36
COc1cc(COc2ccc(S(=O)(=O)NC(=O)c3cc(Cl)c(OCC4CCCC4)cc3F)cc2)cc(OC)c1 [Example 306, 5-chloro-4-(cyclopentylmethoxy)-N-((4-((3,5-dimethoxy-benzyl)oxy)phenyl)sulfonyl)-2-fluorobenzamide]	0.17
O=C(NS(=O)(=O)c1ccc(OCc2cc(F)cc(F)c2)cc1)c1cc(Cl)c(OCC2CCCC2)cc1F [Example 307, 5-chloro-4-(cyclopentylmethoxy)-N-((4-((3,5-difluorobenzyl)oxy)phenyl)sulfonyl)-2-fluorobenzamide]	0.73
COc1cccc(COc2ccc(S(=O)(=O)NC(=O)c3cc(Cl)c(OCC4CCCC4)cc3F)cc2)c1 [Example 308, 5-chloro-4-(cyclopentylmethoxy)-2-fluoro-N-((4-((3-methoxybenzyl)oxy)phenyl)sulfonyl)benzamide]	0.1
COc1ccc(COc2ccc(S(=O)(=O)NC(=O)c3cc(Cl)c(OCC4CCCC4)cc3F)cc2)cc1 [Example 309, 5-chloro-4-(cyclopentylmethoxy)-2-fluoro-N-((4-((4-methoxybenzyl)oxy)phenyl)sulfonyl)benzamide]	0.12
O=C(NS(=O)(=O)c1ccc(OCc2cccnc2)cc1)c1cc(Cl)c(OCC2CCCC2)cc1F [Example 310, 5-chloro-4-(cyclopentylmethoxy)-2-fluoro-N-((4-(pyridin-3-ylmethoxy)phenyl)sulfonyl)benzamide]	0.018
Cn1ccnc1COc1ccc(S(=O)(=O)NC(=O)c2cc(Cl)c(OCC3CCCC3)cc2F)cc1 [Example 312, 5-chloro-4-(cyclopentylmethoxy)-2-fluoro-N-((4-((1-methyl-1H-imidazol-2-yl)methoxy)phenyl)sulfonyl)benzamide]	0.083
